Several values for one entry are separate records, joined by “and”; a condition that tells them apart may be missing. Equal entries are not always repeated.
Key:
late Na+ current (INaL) [1] = experiment: INaL under conventional voltage clamp (2 s pulses to −20 mV from −120 mV) in isolated ventricular myocytes; format: cell-based, canine; conditions: for inhibition of INaL current integral: 1 µM GS967, 20 µM mexiletine, 10 µM quinidine; for inhibition of INaL density: at 50 ms, 1 µM GS967 (n = 6), 20 µM mexiletine (n = 5), 10 µM quinidine (n = 6); for INaL current integral (charge carried), post-drug: initial 20 ms excluded, 1 µM GS967 (pre-drug −69.1 ± 7.9), 20 µM mexiletine (pre-drug −68.6 ± 6.2), 10 µM quinidine (pre-drug −68.2 ± 11.7); for INaL density at 50 ms after start of pulse, post-drug: −20 mV from −120 mV, 1 µM GS967 (pre-drug −0.313 ± 0.035), 20 µM mexiletine (pre-drug −0.337 ± 0.035), 10 µM quinidine (pre-drug −0.333 ± 0.043)
Protocol: (§1) Single canine ventricular myocytes were isolated using a segment perfusion technique, as previously described. Briefly, the LAD coronary artery was cannulated and used for supplying solutions required for the dissociation of the individual cells with minimal injury. After dissection, the tissue was first perfused with a nominally Ca^2+-free solution (Minimum Essential Medium Eagle, Joklik Modification, Sigma-Aldrich Co., St. Louis, MO, USA) for 5 min in order to reduce the Ca^2+ load and also to promote the uncoupling of cell-to-cell junctions. Following this, the perfusate was supplemented with 1 mg/mL collagenase (Type II, final activity of 224 U/mL, Worthington Biochemical Co., Lakewood, NJ, USA) and 0.2% bovine serum albumin (Fraction V., Sigma) in the presence of 50 µM Ca^2+. This step was applied for 30 min to digest the collagen fibers in the extracellular matrix, resulting in the release of individual cells. […] The cells were kept at 15 °C before use, allowing normalization of their intracellular ionic composition. All chemicals applied in these experiments were purchased from Sigma-Aldrich Co. (St. Louis, MO, USA).
(§2) The cells, studied by an inverted microscope, were continuously superfused with a modified Tyrode at a rate of 1–2 mL/min. The modified Tyrode solution contained (in mM): NaCl: 121; KCl: 4; CaCl2: 1.3; MgCl2: 1; HEPES: 10; NaHCO3: 25; glucose: 10; pH: 7.35; osmolarity: 300 ± 3 mOsm. The temperature of this perfusate was set to 37 °C with a temperature controller (Cell MicroControls, Norfolk, VA, USA). Electrical signals were generated, amplified and recorded using a MultiClamp 700A or 700B amplifier under the control of pClamp 10 software (Molecular Devices, Sunnyvale, CA, USA) after analogue-to-digital conversion (Digidata 1440A or 1332, Molecular Devices). The electrodes were manufactured from borosilicate glass. The tip resistance of these micropipettes ranged between 2 and 3 MΩ when filled with pipette solution. Ion currents were recorded under whole-cell voltage clamp conditions. The series resistance was typically 4–8 MΩ. The measurement was discarded when the series resistance changed substantially during the experimental period.
Rectangular command pulses were applied in conventional voltage clamp experiments to study the effects on INaL at stable test potentials, as described previously. The cells were perfused with HEPES-buffered Tyrode solution containing (in mM): NaCl, 144; NaH2PO4, 0.4; KCl, 4.0; CaCl2, 1.8; MgSO4, 0.53; glucose, 5.5; HEPES, 5.0; at pH = 7.4. This solution contained 1 µM nisoldipine, 0.5 µM HMR-1556 and 0.1 µM dofetilide in order to block the Ca^2+ and K^+ currents. The pipette solution contained (in mM): CsCl, 125; TEACl, 20; MgATP, 5; EGTA, 10; HEPES, 10; at pH = 7.2. Test pulses of 2 s duration were clamped to −20 mV from the holding potential of −120 mV. The total amount of INaL was determined by pharmacological subtraction using a final superfusion with 20 µM TTX. The amplitude of INaL was determined at 50 ms following the start of the pulse. When measuring the charge carried by INaL (integral), the initial 20 ms of the current was excluded from evaluation to minimize the contamination with INaP.

late Na+ current (INaL) [2] = experiment: INaL dissected by drug under action potential voltage clamp (APVC) in isolated ventricular myocytes; format: cell-based, canine; conditions: cycle length 700 ms, 37 °C, 1 µM GS967, 20 µM mexiletine, 10 µM quinidine, mean ± SEM
Protocol: as §1, §2
APVC experiments were performed according to the methods described previously. This technique allows for the visualization of various ion currents flowing during an actual ventricular AP by using a selective inhibitor of the respective ion current. In these experiments, therefore, a midmyocardial canine ventricular AP was applied as a command signal. The current traces were continuously recorded before and after a 5 min superfusion with the applied Na^+ channel inhibitor. The drug-sensitive current was obtained by subtracting the post-drug trace from the reference pre-drug trace. When measuring INaL, the external solution was supplemented with 1 µM nisoldipine, 1 µM E4031 and 100 µM chromanol 293B, in order to eliminate contaminations by Ca^2+ and K^+ currents. The pipette solution contained (in mM): K-aspartate, 120; KCl, 30; MgATP, 3; HEPES, 10; Na2-phosphocreatine, 3; EGTA, 0.01; cAMP, 0.002; KOH, 10; at pH = 7.3; osmolarity of 285 mOsm. The amplitude of INaL was measured at 50% duration of the APD90 value of the command AP. The initial 20 ms period following the AP upstroke was excluded from evaluation when determining the current integral in order to eliminate the contribution of INaP. A total of 20 consecutive current traces were averaged and analyzed in each experiment to reduce the noise and the trace-to-trace fluctuations of the AP configuration. Ion currents were normalized to cell capacitance, determined by applying a short (15 ms) hyperpolarizing pulse from +10 mV to −10 mV.

Nav1.5 = test system: Nav1.5; parameters: method as in PMID 27136942, PMID 32938719; conditions: cited from earlier work
[3] = test system: peak Na+ current (INaP) estimated as V+max; experiment: Offset kinetics: restitution of V+max with extra stimuli after 1 Hz trains; format: cell-based, canine; conditions: monoexponential fit, basic cycle length 1 s; 1 µM GS967, 20 µM mexiletine
Protocol: (§3) Right ventricular papillary muscles were applied for AP recordings using the conventional sharp microelectrode technique, as described previously. Membrane potential changes were recorded at 37 °C using sharp microelectrodes filled with 3 M KCl (tip resistance 10–20 MΩ) and connected to the input of an amplifier (MDE GmbH, Heidelberg, Germany). The preparations were stimulated with current pulses having durations of 1 ms and amplitudes of 200% diastolic threshold using a pair of platinum electrodes. Before starting the experiment, the preparations were paced at a cycle length of 1 s for at least 60 min allowing equilibration. After this period, the cycle length was sequentially changed between 0.3 and 5 s and the 25th AP was recorded at each cycle length. […] APs were sampled at 100 kHz with an ADA 3300 data acquisition board (Real Time Devices Inc., State Collage, PA, USA) and stored for later analysis.

[4] = test system: peak Na+ current (INaP) estimated as V+max; experiment: Onset kinetics of V+max block during 2.5 Hz train after 1 min rest; format: cell-based, canine; conditions: initial 40 APs, 1 µM GS967, 20 µM mexiletine, 10 µM quinidine
Protocol: as §3
The onset kinetics of drug action on V^+max were determined by stimulating the preparation at a short cycle length of 0.4 s following a 1 min period of rest and the initial 40 APs were recorded. The V^+max values of the consecutive APs were plotted as a function of the number of the AP within the train. The onset rate constant was determined by fitting the consecutive V^+max values to a monoexponential function.

Nav1.1 = test system: Nav1.1; parameters: method as in PMID 31730442; conditions: cited from earlier work
Nav2.1 = conditions: stated in discussion, no reference given; cited from earlier work
[5] = test system: peak Na+ current (INaP) estimated as V+max; experiment: Steady-state V+max of action potential upstroke (indicator of INaP), right ventricular papillary muscle, sharp microelectrode; format: cell-based, canine; conditions: 1 µM GS967, 20 µM mexiletine, 10 µM quinidine; for V+max block: cycle length 700 ms; for cycle lengths at which V+max was significantly reduced: cycle lengths 0.3-5 s tested
Protocol: as §3

Nav1.8 = conditions: stated in discussion, no reference given; cited from earlier work
INaL over INaP = conditions: cited from earlier work

Structure (SMILES)	inhibition of INaL current integral (late Na+ current (INaL) [1]) [%]	inhibition of INaL density (late Na+ current (INaL) [1]) [%]	INaL current integral (charge carried), post-drug (late Na+ current (INaL) [1]) [mC/F]	INaL density at 50 ms after start of pulse, post-drug (late Na+ current (INaL) [1]) [A/F]	drug-sensitive INaL current density measured at 50% duration of APD90 of the command AP (late Na+ current (INaL) [2]) [A/F]	drug-sensitive INaL current integral (initial 20 ms excluded) (late Na+ current (INaL) [2]) [mC/F]	block of cardiac Nav1.5 channel isoform (Nav1.5)	offset time constant (recovery of V+max) [3] [ms]	onset rate constant of V+max block [4]	sensitivity of neuronal Nav1.1 (Nav1.1)	inhibition of Nav2.1 (Nav2.1)	V+max block [5] [%]	cycle lengths at which V+max was significantly reduced [5] [ms]	inhibition of Nav1.8 (Nav1.8)	selectivity for INaL over INaP (INaL over INaP) [fold]
C=C[C@H]1C[N@@]2CC[C@H]1C[C@@H]2[C@@H](O)c1ccnc2ccc(OC)cc12 [quinidine]	37.1	43.3 ± 2.2	−42.9 ± 9.2	−0.186 ± 0.02	−0.377 ± 0.06	−61.2 ± 8.8									
FC(F)(F)Oc1ccc(-c2ccc3nnc(C(F)(F)F)n3c2)cc1 [GS967]	79.0	80.4 ± 2.2	−15.4 ± 3.9	−0.062 ± 0.01	−0.37 ± 0.07	−56.7 ± 9.1	strongly block	110 ± 6	6.4 ± 0.9 AP and 5.3±0.8 AP	sensitive	does not inhibit	2.3	< 500	does not inhibit	
Cc1cccc(C)c1OCC(C)N (stereo not drawn) [mexiletine]	46.1	41.9 ± 3.7	−37.0 ± 4.7	−0.197 ± 0.026	−0.375 ± 0.07	−65.2 ± 11.5		456 ± 284	3.4 ± 0.4 AP			11.4	< 700		
O=C(NCC1CCCCN1)c1cc(OCC(F)(F)F)ccc1OCC(F)(F)F (stereo not drawn) [flecainide]															3
COc1ccccc1OCC(O)CN1CCN(CC(=O)Nc2c(C)cccc2C)CC1 (stereo not drawn) [ranolazine]															38
CCCCc1oc2ccccc2c1C(=O)c1cc(I)c(OCCN(CC)CC)c(I)c1 [amiodarone]															13

Reference: paper PMC10525890, “Selective Inhibition of Cardiac Late Na^+ Current Is Based on Fast Offset Kinetics of the Inhibitor” (Biomedicines, 2023)
